In patent publication US8383608B2, “Imidazolidine compounds as androgen receptor modulators” (Dart Therapeutics LLC, priority 2008, dated 2013):
Read-outs that look alike come from different tables or passages of the source.

Assays:
[1] = target: T1, human androgen receptor (hAR) (Homo sapiens, UniProt P10275); assay: Functional response (transactivation) test in HALP2 cells (HeLa stably expressing hAR and ARE-luciferase reporter); assay type: cell-based; conditions: for Emax: HeLa, read-out: % effect relative to DHT (100%)
T1 construct: expressed in transfected cells
T1 sequence (P10275 1-920): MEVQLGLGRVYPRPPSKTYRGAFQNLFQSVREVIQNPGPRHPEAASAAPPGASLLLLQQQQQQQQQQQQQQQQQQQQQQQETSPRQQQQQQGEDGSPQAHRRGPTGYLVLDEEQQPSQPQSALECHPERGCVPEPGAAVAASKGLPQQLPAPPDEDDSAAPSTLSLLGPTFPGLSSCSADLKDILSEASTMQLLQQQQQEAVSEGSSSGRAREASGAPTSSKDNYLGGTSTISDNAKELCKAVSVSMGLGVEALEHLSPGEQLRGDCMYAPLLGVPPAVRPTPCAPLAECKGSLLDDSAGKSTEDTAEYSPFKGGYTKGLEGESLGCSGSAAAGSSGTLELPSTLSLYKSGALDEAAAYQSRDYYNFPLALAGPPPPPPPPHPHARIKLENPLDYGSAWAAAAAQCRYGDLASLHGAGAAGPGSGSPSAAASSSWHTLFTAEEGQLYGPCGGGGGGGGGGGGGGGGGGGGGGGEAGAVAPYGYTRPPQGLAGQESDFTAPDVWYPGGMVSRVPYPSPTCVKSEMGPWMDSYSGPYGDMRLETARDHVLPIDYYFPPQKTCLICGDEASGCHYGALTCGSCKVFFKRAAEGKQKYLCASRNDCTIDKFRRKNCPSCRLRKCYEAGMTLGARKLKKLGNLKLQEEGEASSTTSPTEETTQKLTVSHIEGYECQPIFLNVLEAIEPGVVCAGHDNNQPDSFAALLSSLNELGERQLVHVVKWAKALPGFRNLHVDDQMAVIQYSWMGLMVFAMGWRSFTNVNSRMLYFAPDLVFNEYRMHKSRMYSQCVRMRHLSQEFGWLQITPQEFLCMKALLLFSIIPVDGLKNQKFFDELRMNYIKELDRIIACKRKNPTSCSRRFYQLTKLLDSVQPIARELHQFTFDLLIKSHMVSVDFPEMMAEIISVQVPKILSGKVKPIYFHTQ
Source text: This test constitutes a method of identifying pure or partial agonists which mimic the effects of natural hormones, such as DHT (dihydrotestosterone) in the present case or, on the other hand, antagonists which inhibit them.
For this transactivation test, plasmids encoding a reporter gene and the human androgen receptor (hAR) are introduced together by transfection into the HeLa cell line. The reporter plasmid contains luciferase cDNA under the control of the AREs contained in the promoter sequences of the probasin gene (3xpbAREminicoll-luciferase/pGL3-puro). The expression of the reporter gene constitutes an indication of the transcriptional activity of hAR. It also encodes a protein allowing the cells expressing it to resist a treatment with puromycin. The plasmid encoding hAR contains the cDNA of hAR under the control of the Cytomegalovirus (CMV) promoter. It also encodes a protein allowing the cells expressing it to resist a treatment with neomycin. The treatment of cells with increasing amounts of potentially agonistic compounds will increase the expression of the reporter gene. To detect antagonists, on the other hand, increasing doses of test compounds are tested in the presence of […] of DHT. The expression of the reporter gene, which is constant for each dose of DHT, decreases when the concentration of the test compounds increases.
The functional response test is conducted on 96-well plates. The HALP2 cells are seeded (20,000 cells per well) in culture medium (DMEM with phenol red, 1% de Pen-Strep, 1% of non-essential amino acids, 10% of fetal bovine serum, 400 μg/mL Geneticin and 0.150 puromycin) on day 1. After 24 hours incubating at 37° C., 5% CO2, high humidity (day 2) the medium is removed and refreshed with test medium (DMEM without phenol red supplemented, 1% de Pen-Strep, 1% of non-essential amino acids and 5% of desteroidised foetal bovine serum). After another 24 hours incubating at 37° C., 5% CO2, high humidity (day 3), the medium is renewed once more before the phase of stimulation.
The cells are placed in contact with the compounds for 24 hours at 37° C., 5% CO2, high humidity. On day 4 the medium is then removed and the luciferase activity reading reagent is placed in contact with the cells in accordance with the manufacturer's instructions (SteadyLite, Perkin-Elmer). The luminescence produced is detected on an Envision reader (Perkin-Elmer). […]
The determination of the relative agonism/antagonism of a compound is obtained by comparing the maximal activation obtained with said compound and the activation obtained with DHT alone (100%).

[2] = Determination of absolute bioavailability (restricted PK profile, oral and intravenous); assay type: in vivo; conditions: absolute bioavailability (F), male Sprague Dawley rats, oral 10 mg/kg AUC(0-6 h) vs intravenous 3 mg/kg AUC(0-3 h)
Method: To screen rapidly imidazolidines derivatives based on their absolute bioavailabity, restricted pharmacokinetic profile with only fours sampling time points after oral and intravenous route is investigated in Sprague Dawley rats as follows: each test compound is dosed orally (10 mg/kg) and intravenously (3 mg/kg) to groups of 3 male Sprague Dawley rats. Oral doses are administered as solution in EtOH/PEG400/H2O (1/79/20; v/v) by esophageal gavage (2 mg/mL; 5 mL/kg) and intravenous dose is given as solution in DMSO/PEG400/H2O (1/65/34; v/v) as a bolus in the tail vein (3 mg/mL; 1 mL/kg). Before oral dosing, animals are deprived of food (water ad libitum) for at least 16 hours before the start of the study and 6 hours after administration.
Blood is collected at the retro-orbital sinus into polypropylene tubes (Li-heparinate) at +4° C. at the following sampling-times: 0.083, 0.25, 1 and 3 h after intravenous injection and 0.25, 1, 3 and 6 hours after oral dosing. Three (3) animals are sampled per time-point; each animal being sampled four times. After centrifugation at 5000 rpm for 10 min at +4° C., plasma is collected into polypropylene tubes and kept frozen at −20° C. pending assays. Plasma samples are assayed by a LC-MS/MS method with a lower limit of quantification of 1 to 10 ng/mL depending on the compound (volume of plasma: 100 μL).
A LC-MS/MS method for quantification in heparinized plasma was developed for each test compound. Sample preparation consists of a precipitation of plasma proteins with methanol and filtration by centrifugation of supernatant on Captiva deep-well 96 0.2 μm filter plates. Water was added to methanol supernatant phase prior to analysis by liquid chromatography (Pursuit 5 C18 20×2.0 mm VARIAN, 2 μL loop, gradient Water/Methanol (90/10 to 0/100) over 1.7 min) with turboionspray tandem mass spectrometry (API4000) in negative mode using multiple reaction monitoring. The method includes 8 standard and 3 quality control levels with lower limit of quantification corresponding to first standard level.
Exposures are determined using a non compartmental model (WinNonLin 2.1) and the absolute bioavailability (F) is calculated as follows: [AUC(0-6 h) oral*3 mg/kg]/AUC(0-3 h) IV 10 mg/kg] and expressed in percentage.

[3] = test system: castrated immature young rats; assay: Adapted model of Hershberger's test; assay type: in vivo, Sprague Dawley rats; conditions: Rattus norvegicus, po, 96 h, ORX control = 0%, SHAM control = 100%, per os daily for 4 days, dose tested 10 mg/kg
Method: The selective modulating activity of the androgen receptor is tested in a model of castrated immature young rats. This model, which is widely recognised for evaluating the anabolic effects of androgen compounds on the muscles and on the prostate, has been described by Hershberger et al. 1953 Proc. Soc. Expt. Biol. Med. 83:175.
The method is based on the measurement of the well-known effects of androgens on the growth of the muscles and the accessory male sex organs in animals, and also in men. The consequences of castration appear in the form of a rapid involution and atrophy of the prostate and the seminal vesicles and of the anus-lifting muscle (levator ani). This effect may be completely compensated by an exogeneous administration of androgen, in particular of testosterone. The model is thus used to determine the capacity of the tested molecules to maintain the weight of the accessory sex and muscle organs in immature castrated rats, and therefore their androgenic efficacy.
Immature young Sprague Dawley rats (4 to 5 weeks old) weighing approximately 140-160 g (Charles River, Les Oncins, FRANCE) are distributed randomly in various groups and are kept in an environment at 22±2° C. with an alternating day/night cycle of 12 hours and ad libitum access to food and drink.
On day 0 (seven days before commencement of the first treatment) the rats are weighed individually then anaesthetised with an intraperitoneal dose of Ketamine/xylazine (85/15 mg/kg, approximately 2 ml/kg). Each animal is then placed on a sterile field and the abdomen and the scrotum are disinfected with Betadine and 70% alcohol. In the case of the orchidectomised control animals (ORX), the testicles are removed via an incision in the middle of the scrotum. A sterile suture is then made to ligature the supra-testicular portion of the tissue prior to surgical section of each testicle. The groups of animals to be treated by the tested compounds are operated on in an identical manner. In the case of the intact control animals (SHAM), the testicles are similarly extracted and reintroduced delicately to their original location. The site of surgical intervention is then sutured using sterile suture thread, and the site is disinfected again by application of Betadine. Each animal is then kept under a sterile pad until it awoke, before being returned to its cage. The animals are kept in an environment at 22±2° C. with an alternating day/night cycle of 12 hours and ad libitum access to food and drink. The animals are treated with the molecules to be tested from post-surgery day 7 and until day 10 preceding sacrifice (day 11).
The rats are split into groups and treated daily from day 7 to day 10 under the conditions defined below: • 1. SHAM control group: Vehicle (PEG400/DMSO/water; 79/1/20) administered per os. • 2. ORX control group: Vehicle (PEG400/DMSO/water; 79/1/20) administered per os. • 3. Treated ORX group: The tested compounds are administered individually per os in suspension in the vehicle described above, in a dose of 10 mg/kg.
After treatment for 4 successive days, the animals are decapitated using a guillotine. The levator ani and the ventral prostate are removed and weighed individually. For comparing inter-experimental data, the weight of each organ is standardised and expressed in milligrammes per 100 g of the weight of the animal (W). For each organ, the average of the standardised weights of the ORX control group is fixed by definition at 0% and the average of the standardised weights of the SHAM control group is fixed by definition at 100%. The efficacy of each product is expressed as a percentage and calculated using the following formula: (Wtreated−WORX)/(WSHAM−WORX)×100
A subsequent ANOVA test is used for statistical analysis to identify the differences between groups.

[4] = maximal activation by the compound compared with DHT alone (100%), HALP2 cells
[5] = agonism: concentration inducing 50% of the maximum agonistic effect of the tested compound, HALP2 cells, 24 hours, read-out: EC50
[6] = levator ani weight, read-out: Anabolic activity %
[7] = ventral prostate weight, read-out: Androgenic activity % (Prostate)
[8] = male, Sprague-Dawley, rat, plasma, po, 10 mg/kg, read-out: Bioavailability

| SMILES | Emax [1, 4] [%] | EC50 [1, 5] [nM] | bioavailability [2, 8] [%] | other results |
| --- | --- | --- | --- | --- |
| CC(O)C1(c2ccccc2)C(=O)N(c2ccc(C#N)c(C(F)(F)F)c2)C(=O)N1C (single isomer, unassigned) [Example 4, 4-[2,5-Dioxo-4-(1-hydroxyethyl)-3-methyl-4-phenylimidazolidin-1-yl]-2-trifluoromethylbenzonitrile] | 0 to 5 |  |  | bioavailability [2]: # (0-49%) |
| CC(C)N1C(=O)N(c2ccc(C#N)c(C(F)(F)F)c2)C(=O)C1(CO)c1ccccc1 (stereo not shown) [Example 17, 4-[2,5-Dioxo-4-(hydroxymethyl)-3-(1-methylethyl)-4-phenylimidazolidin-1-yl]-2-trifluoromethylbenzonitrile] | 41 to 50 | 101 to 500 |  | response vs control in vivo at 10 mg/kg [3, 6]: 75 to 100%; response vs control in vivo at 10 mg/kg [3, 7]: 50 to 75% |
| CN1C(=O)N(c2ccc(C#N)c(C(F)(F)F)c2)C(=O)C1(CO)c1ccccc1 (stereo not shown) [Example 1, 4-[2,5-Dioxo-4-(hydroxymethyl)-3-methyl-4-phenylimidazolidin-1-yl]-2-trifluoromethylbenzonitrile] | 21 to 40 | 0.01 to 10 | 50 to 90 |  |
| C#CCN1C(=O)N(c2ccc(C#N)c(C(F)(F)F)c2)C(=O)C1(CO)c1ccc(F)cc1 (stereo not shown) [Example 8, 4-[2,5-Dioxo-4-(4-fluorophenyl)-4-hydroxymethyl-3-(2-propynyl)imidazolidin-1-yl]-2-trifluoromethylbenzonitrile] |  |  | > 90 | EC50 [1]: 101 to 500 nM; Emax [1]: 6 to 20% |
| CCC(O)C1(c2ccccc2)C(=O)N(c2ccc(C#N)c(C(F)(F)F)c2)C(=O)N1C (single isomer, unassigned) [Example 3, 4-[2,5-Dioxo-4-(1-hydroxypropyl)-3-methyl-4-phenylimidazolidin-1-yl]-2-trifluoromethylbenzonitrile] |  |  | 50 to 90 |  |
| CN1C(=O)N(c2ccc(Cl)c(Cl)c2)C(=O)C1(CO)c1ccccc1 (stereo not shown) [Example 16, 1-(3,4-Dichlorophenyl)-4-hydroxymethyl-3-methyl-4-phenylimidazolidine-2,5-dione] | 6 to 20 | 101 to 500 |  | response vs control in vivo at 10 mg/kg [3, 6]: 75 to 100%; response vs control in vivo at 10 mg/kg [3, 7]: 0.5 to 25% |
| CC(O)C1(c2ccccc2)C(=O)N(c2ccc(C#N)c(C(F)(F)F)c2)C(=O)N1C (single isomer, unassigned) [Example 5, 4-[2,5-Dioxo-4-(1-hydroxyethyl)-3-methyl-4-phenylimidazolidin-1-yl]-2-trifluoromethylbenzonitrile] |  |  |  | % effect relative to DHT (100%) [1, 4]: § (0-5%); bioavailability [2]: ### (>90%:) |
